target: T1, GCase (Homo sapiens, UniProt P04062); test: activation of GCase in a live cell PFB assay in HELA cells; format: cell-based; details: activation of GCase, EC50 ranges
T1 construct: endogenous in cells; host or cells: HeLa cells
T1 sequence (P04062 40-536): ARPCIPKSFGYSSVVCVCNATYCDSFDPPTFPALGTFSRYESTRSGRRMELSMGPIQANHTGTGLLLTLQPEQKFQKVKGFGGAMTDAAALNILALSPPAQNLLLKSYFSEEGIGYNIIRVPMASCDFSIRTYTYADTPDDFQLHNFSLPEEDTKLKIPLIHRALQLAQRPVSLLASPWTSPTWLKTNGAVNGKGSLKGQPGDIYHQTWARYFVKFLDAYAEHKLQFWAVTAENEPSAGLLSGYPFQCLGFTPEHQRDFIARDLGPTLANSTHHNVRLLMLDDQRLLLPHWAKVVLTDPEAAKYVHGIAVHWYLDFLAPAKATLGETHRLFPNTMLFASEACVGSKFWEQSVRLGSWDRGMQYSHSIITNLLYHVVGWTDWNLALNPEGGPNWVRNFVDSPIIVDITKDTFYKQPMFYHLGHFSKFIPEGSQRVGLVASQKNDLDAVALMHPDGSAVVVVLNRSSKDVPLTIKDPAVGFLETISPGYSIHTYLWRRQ
Description: Exemplary compounds were evaluated for activation of GCase in a live cell PFB assay in HELA cells (essentially as described in Ysselstein et al., “LRRK2 kinase activity regulates lysosomal glucocerebrosidase in neurons derived from Parkinson's disease patients” Nature Communications (2019) 10:5570). […] EC50 ranges: A: <10 μM; B: >10-50 μM; C: >50-100 μM; D: >100 μM.

Compound | EC50
FC(F)Cn1ncc2ncc(N3CCCC4(CN(c5cccc(C(F)(F)F)n5)C4)C3)nc21 [Compound 23, 6-[1-(2,2-difluoroethyl)-1H-pyrazolo[3,4-b]pyrazin-6-yl]-2-[6-(trifluoromethyl)pyridin-2-yl]-2,6-diazaspiro[3.5]nonane] | 10 to 50 µM
Fc1ccc(F)c(OC2CC3(CCCN(c4cnc5cnn(CC(F)F)c5n4)C3)C2)c1 (stereo not drawn) [Compound 24, 6-[1-(2,2-difluoroethyl)-1H-pyrazolo[3,4-b]pyrazin-6-yl]-2-(2,5-difluorophenoxy)-6-azaspiro[3.5]nonane] | 10 to 50 µM
FC(F)Cn1ncc2ncc(N3CC4(CCCN(c5cccc(C(F)(F)F)n5)C4)C3)nc21 [Compound 25, 2-[1-(2,2-difluoroethyl)-1H-pyrazolo[3,4-b]pyrazin-6-yl]-6-[6-(trifluoromethyl)pyridin-2-yl]-2,6-diazaspiro[3.5]nonane] | 10 to 50 µM
FC(F)Cn1ncc2ncc(N3CCCC4(C3)CN(c3cccnc3C(F)(F)F)C4)nc21 [Compound 26, 6-[1-(2,2-difluoroethyl)-1H-pyrazolo[3,4-b]pyrazin-6-yl]-2-[2-(trifluoromethyl)pyridin-3-yl]-2,6-diazaspiro[3.5]nonane] | 10 to 50 µM
FC(F)Cn1ncc2ncc(N3CCCC4(CC(Oc5cccc(C(F)(F)F)n5)C4)C3)nc21 (stereo not drawn) [Compound 27, 6-[1-(2,2-difluoroethyl)-1H-pyrazolo[3,4-b]pyrazin-6-yl]-2-{[6-(trifluoromethyl)pyridin-2-yl]oxy}-6-azaspiro[3.5]nonane] | 10 to 50 µM
FC(F)Cn1ncc2ncc(N3CCCC4(CC(Oc5ccc(C(F)(F)F)cn5)C4)C3)nc21 (stereo not drawn) [Compound 28, 6-[1-(2,2-difluoroethyl)-1H-pyrazolo[3,4-b]pyrazin-6-yl]-2-{[5-(trifluoromethyl)pyridin-2-yl]oxy}-6-azaspiro[3.5]nonane] | 10 to 50 µM
FC(F)Cn1ncc2ncc(N3CCCC4(CC(Oc5cc(C(F)(F)F)ccn5)C4)C3)nc21 (stereo not drawn) [Compound 29, 6-[1-(2,2-difluoroethyl)-1H-pyrazolo[3,4-b]pyrazin-6-yl]-2-{[4-(trifluoromethyl)pyridin-2-yl]oxy}-6-azaspiro[3.5]nonane] | 10 to 50 µM
Fc1ccc(F)c(OC2CC3(CCCN(c4cnc5cnn(CC(F)(F)F)c5n4)C3)C2)c1 (stereo not drawn) [Compound 30, 2-(2,5-difluorophenoxy)-6-[1-(2,2,2-trifluoroethyl)-1H-pyrazolo[3,4-b]pyrazin-6-yl]-6-azaspiro[3.5]nonane] | 10 to 50 µM
Fc1cc(F)cc(OC2CC3(CCCN(c4cnc5cnn(CC(F)F)c5n4)C3)C2)c1 (stereo not drawn) [Compound 31, 6-[1-(2,2-difluoroethyl)-1H-pyrazolo[3,4-b]pyrazin-6-yl]-2-(3,5-difluorophenoxy)-6-azaspiro[3.5]nonane] | 10 to 50 µM
FC(F)Cn1ncc2ncc(N3CCCC4(CC(Oc5ncccc5C(F)(F)F)C4)C3)nc21 (stereo not drawn) [Compound 32, 6-[1-(2,2-difluoroethyl)-1H-pyrazolo[3,4-b]pyrazin-6-yl]-2-{[3-(trifluoromethyl)pyridin-2-yl]oxy}-6-azaspiro[3.5]nonane] | 10 to 50 µM
Fc1cc(F)cc(OC2CC3(CCCN(c4cnc5cnn(CC(F)(F)F)c5n4)C3)C2)c1 (stereo not drawn) [Compound 33, 2-(3,5-difluorophenoxy)-6-[1-(2,2,2-trifluoroethyl)-1H-pyrazolo[3,4-b]pyrazin-6-yl]-6-azaspiro[3.5]nonane] | 10 to 50 µM
FC(F)Cn1ncc2ncc(N3CCCC4(CCN(c5cccc(C(F)(F)F)n5)C4)C3)nc21 (stereo not drawn) [Compound 34, 7-[1-(2,2-difluoroethyl)-1H-pyrazolo[3,4-b]pyrazin-6-yl]-2-[6-(trifluoromethyl)pyridin-2-yl]-2,7-diazaspiro[4.5]decane] | 10 to 50 µM
FC(F)Cn1ncc2ncc(N3CCCC4(C3)CN(c3ccncc3C(F)(F)F)C4)nc21 [Compound 35, 6-[1-(2,2-difluoroethyl)-1H-pyrazolo[3,4-b]pyrazin-6-yl]-2-[3-(trifluoromethyl)pyridin-4-yl]-2,6-diazaspiro[3.5]nonane] | 10 to 50 µM
FC(F)Cn1ncc2ncc(N3CCC4(CCCN(c5cccc(C(F)(F)F)n5)C4)C3)nc21 (stereo not drawn) [Compound 36, 2-[1-(2,2-difluoroethyl)-1H-pyrazolo[3,4-b]pyrazin-6-yl]-7-[6-(trifluoromethyl)pyridin-2-yl]-2,7-diazaspiro[4.5]decane] | 10 to 50 µM
FC(F)Cn1ncc2ncc(N3CCCC4(CN(c5ccc(C(F)(F)F)nc5)C4)C3)nc21 [Compound 37, 6-[1-(2,2-difluoroethyl)-1H-pyrazolo[3,4-b]pyrazin-6-yl]-2-[6-(trifluoromethyl)pyridin-3-yl]-2,6-diazaspiro[3.5]nonane] | 10 to 50 µM
FC(F)Cn1ncc2ncc(N3CCCC4(CN(c5cc(C(F)(F)F)ccn5)C4)C3)nc21 [Compound 38, 6-[1-(2,2-difluoroethyl)-1H-pyrazolo[3,4-b]pyrazin-6-yl]-2-[4-(trifluoromethyl)pyridin-2-yl]-2,6-diazaspiro[3.5]nonane] | 10 to 50 µM
FC(F)Cn1ncc2ncc(N3CC4(CCCN(c5ncccc5C(F)(F)F)C4)C3)nc21 [Compound 39, 2-[1-(2,2-difluoroethyl)-1H-pyrazolo[3,4-b]pyrazin-6-yl]-6-[3-(trifluoromethyl)pyridin-2-yl]-2,6-diazaspiro[3.5]nonane] | 50 to 100 µM
O=C(c1ccc2cc[nH]c2c1)N1CCCC2(CC(Oc3cnccc3C(F)(F)F)C2)C1 (stereo not drawn) [Compound 40, 6-(1H-indole-6-carbonyl)-2-{[4-(trifluoromethyl)pyridin-3-yl]oxy}-6-azaspiro[3.5]nonane] | 50 to 100 µM
FC(F)Cn1ncc2ncc(N3CCCC4(CN(c5ccc(C(F)(F)F)cn5)C4)C3)nc21 [Compound 41, 6-[1-(2,2-difluoroethyl)-1H-pyrazolo[3,4-b]pyrazin-6-yl]-2-[5-(trifluoromethyl)pyridin-2-yl]-2,6-diazaspiro[3.5]nonane] | 50 to 100 µM
O=C(Cc1csc(-c2ccccc2)n1)N1CCCC2(C1)CN(c1ccccc1)C2 [Compound 57, 2-(2-phenyl-1,3-thiazol-4-yl)-1-{2-phenyl-2,6-diazaspiro[3.5]nonan-6-yl}ethan-1-one] | 10 to 50 µM
O=C(Cc1csc(-c2ccccc2)n1)N1CC2(CCCN(c3ccccc3)C2)C1 [Compound 58, 2-(2-phenyl-1,3-thiazol-4-yl)-1-{6-phenyl-2,6-diazaspiro[3.5]nonan-2-yl}ethan-1-one] | 10 to 50 µM
FC(F)Cn1ncc2ncc(N3CCC4(CC3)CN(c3ccc(C(F)(F)F)nc3)C4)nc21 [Compound 66, 7-[1-(2,2-difluoroethyl)-1H-pyrazolo[3,4-b]pyrazin-6-yl]-2-[6-(trifluoromethyl)pyridin-3-yl]-2,7-diazaspiro[3.5]nonane] | < 10 µM
FC(F)Cn1ncc2ncc(N3CCC4(CC3)CN(c3ccnc(C(F)(F)F)c3)C4)nc21 [Compound 68, 7-[1-(2,2-difluoroethyl)-1H-pyrazolo[3,4-b]pyrazin-6-yl]-2-[2-(trifluoromethyl)pyridin-4-yl]-2,7-diazaspiro[3.5]nonane] | < 10 µM
FC(F)Cn1ncc2ncc(N3CCC4(CC3)CN(c3cncc(C(F)(F)F)c3)C4)nc21 [Compound 69, 7-[1-(2,2-difluoroethyl)-1H-pyrazolo[3,4-b]pyrazin-6-yl]-2-[5-(trifluoromethyl)pyridin-3-yl]-2,7-diazaspiro[3.5]nonane] | 10 to 50 µM
O=C1N(c2cc(C(F)(F)F)ccn2)C(=O)C2(CCN(c3cnc4cnn(CC(F)F)c4n3)CC2)N1Cc1ccccc1 [Compound 70, 1-benzyl-8-(1-(2,2-difluoroethyl)-1H-pyrazolo[3,4-b]pyrazin-6-yl)-3-(4-(trifluoromethyl)pyridin-2-yl)-1,3,8-triazaspiro[4.5]decane-2,4-dione] | < 10 µM
CC1(C)C(=O)N(c2cc(C(F)(F)F)ccn2)CC12CCN(c1cnc3cnn(CC(F)F)c3n1)CC2 [Compound 73, 8-(1-(2,2-difluoroethyl)-1H-pyrazolo[3,4-b]pyrazin-6-yl)-4,4-dimethyl-2-(4-(trifluoromethyl)pyridin-2-yl)-2,8-diazaspiro[4.5]decan-3-one] | < 10 µM
CCC1C(=O)N(c2cc(C(F)(F)F)ccn2)CC12CCN(c1cnc3cnn(CC(F)F)c3n1)CC2 (stereo not drawn) [Compound 75, 8-(1-(2,2-difluoroethyl)-1H-pyrazolo[3,4-b]pyrazin-6-yl)-4-ethyl-2-(4-(trifluoromethyl)pyridin-2-yl)-2,8-diazaspiro[4.5]decan-3-one] | < 10 µM
FC(F)Cn1ncc2ncc(N3CCC4(CC3)CN(c3cnccc3C(F)(F)F)C4)nc21 [Compound 76, 7-[1-(2,2-difluoroethyl)-1H-pyrazolo[3,4-b]pyrazin-6-yl]-2-[4-(trifluoromethyl)pyridin-3-yl]-2,7-diazaspiro[3.5]nonane] | < 10 µM
FC(F)Cn1ncc2ncc(N3CCC4(CC3)CN(c3cccc(C(F)(F)F)n3)C4)nc21 [Compound 77, 7-[1-(2,2-difluoroethyl)-1H-pyrazolo[3,4-b]pyrazin-6-yl]-2-[6-(trifluoromethyl)pyridin-2-yl]-2,7-diazaspiro[3.5]nonane] | < 10 µM
FC(F)Cn1ncc2ncc(N3CCC4(CC3)CN(c3ccc(C(F)(F)F)cn3)C4)nc21 [Compound 78, 7-[1-(2,2-difluoroethyl)-1H-pyrazolo[3,4-b]pyrazin-6-yl]-2-[5-(trifluoromethyl)pyridin-2-yl]-2,7-diazaspiro[3.5]nonane] | 10 to 50 µM
